From the supplement of paper PMC10883282
± gives the standard deviation of the averaged measurements.

What was measured:
Assay in all cases: relative viability vs DMSO control (72 h) (fraction); higher = more viable cells
SW1353 = system: SW1353
Method in brief: (§1)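 Sarcoma cell lines were seeded in 384-well plates at densities set to reach 80–90% confluence. After 24 h, 2.5 µl of serially diluted compound was added (source plates 10 mM to 0.0002 mM), and plates were held 72 h at 37 °C, 5% CO2, with 0.1% DMSO vehicle and a 5 µM positive control. Relative viability came from ATPLite readings as percent growth, averaged over up to triplicate wells. Data were rescaled so full viability equals 1 and none equals 0.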

KHOS-NP = system: KHOS-NP
Method in brief: as §1

A204 = system: A204
Method in brief: as §1

HT1080 = system: HT1080
Method in brief: as §1

SK-ES-1 = system: SK-ES-1
Method in brief: as §1

SW982 = system: SW982
Method in brief: as §1

C=CC(=O)Nc1cccc(Nc2nc(Nc3ccc(N4CCN(C(C)=O)CC4)cc3OC)ncc2C(F)(F)F)c1 [Rociletinib]
relative viability
Conditions	A204	HT1080	KHOS-NP	SK-ES-1	SW982	SW1353
0.00017 µM	1.06 ± 0.024	1.07 ± 0.019	1.09 ± 0.035	0.973 ± 0.033	1.01 ± 0.021	1.04 ± 0.025
0.00051 µM	1.08 ± 0.042	1.06 ± 0.034	1.1 ± 0.015	1.02 ± 0.036	1.05 ± 0.028	1 ± 0.035
0.00152 µM	1.13 ± 0.069	1.05 ± 0.045	1.113 ± 0.0067	1.03 ± 0.027	1.08 ± 0.038	1.01 ± 0.018
0.00457 µM	1.1 ± 0.081	1.06 ± 0.035	1.09 ± 0.017	1.06 ± 0.045	1.07 ± 0.02	1.06 ± 0.056
0.01372 µM	1.12 ± 0.078	1.04 ± 0.04	1.09 ± 0.025	1 ± 0.073	1.05 ± 0.017	1 ± 0.06
0.04115 µM	1.04 ± 0.071	1.03 ± 0.044	1.06 ± 0.022	1.03 ± 0.071	1.04 ± 0.033	1.01 ± 0.042
0.1235 µM	1.11 ± 0.041	1.06 ± 0.049	1.09 ± 0.023	1.02 ± 0.025	1.04 ± 0.076	1.01 ± 0.027
0.3704 µM	1.08 ± 0.012	1.1 ± 0.038	1.07 ± 0.017	0.943 ± 0.05	1.05 ± 0.037	0.962 ± 0.025
1.111 µM	1.03 ± 0.087	1.03 ± 0.018	1.06 ± 0.036	0.658 ± 0.07	0.911 ± 0.022	0.769 ± 0.032
3.333 µM	0.589 ± 0.023	0.997 ± 0.024	1.025 ± 0.005	0.232 ± 0.024	0.6095 ± 0.00081	0.594 ± 0.013
10 µM	0.302 ± 0.032	0.454 ± 0.012	0.537 ± 0.028	0.0621 ± 0.0023	0.265 ± 0.013	0.338 ± 0.021
